Measured values taken from publication PMC9715518, “Human and rat microsomal metabolites of N-tert-butoxycarbonylmethamphetamine and its urinary metabolites in rat” (Forensic Toxicology, 2021).
“And” between values parts separate entries of the source, which are not always exact repeats. Identical values can stand only once.

Experiments:
[1] = pH 1.5, 37 °C; cited from earlier work
[2] = Rat administration test, urinary excretion
[3] = Microsomal metabolism test, rat liver microsomes
[4] = Microsomal metabolism test, human liver microsomes
[5] = rat no. 1, urine 0–4 h, BocMA 20 mg/kg i.p.
[6] = rat no. 1, urine 4–8 h, BocMA 20 mg/kg i.p.
[7] = rat no. 1, urine 8–24 h, BocMA 20 mg/kg i.p.
[8] = rat no. 1, urine 24–48 h, BocMA 20 mg/kg i.p.
[9] = rat no. 2, urine 0–4 h, BocMA 20 mg/kg i.p.
[10] = rat no. 2, urine 4–8 h, BocMA 20 mg/kg i.p.
[11] = rat no. 2, urine 8–24 h, BocMA 20 mg/kg i.p.
[12] = rat no. 3, urine 0–4 h, BocMA 20 mg/kg i.p.
[13] = rat no. 3, urine 4–8 h, BocMA 20 mg/kg i.p.
[14] = rat no. 3, urine 8–24 h, BocMA 20 mg/kg i.p.
[15] = rat no. 3, urine 24–48 h, BocMA 20 mg/kg i.p.
[16] = rat no. 3, urine 48–72 h, BocMA 20 mg/kg i.p.

## CC(Cc1ccccc1)N(C)C(=O)OC(C)(C)C (centres unmarked) [BocMA, N-tert-butoxycarbonylmethamphetamine]
[1]
  Half-life in model gastric juice solution: 50 min
[2]; average of 3 rats, urine 0–72 h total, BocMA 20 mg/kg i.p.
  BocMA absolute amount in urine: 16000 ng
[2]; [5]
  BocMA absolute amount in urine: 87 ng
  BocMA concentration in urine: 58 ng/mL
[2]; rat no. 1, urine 0–72 h total, BocMA 20 mg/kg i.p.
  BocMA absolute amount in urine: 240 ng
[2]; [6]
  BocMA absolute amount in urine: 8.9 ng
  BocMA concentration in urine: 8.9 ng/mL
[2]; [7]
  BocMA absolute amount in urine: 59 ng
  BocMA concentration in urine: 7.4 ng/mL
[2]; [8]
  BocMA absolute amount in urine: 84 ng
  BocMA concentration in urine: 12 ng/mL
[2]; [9]
  BocMA absolute amount in urine: 190 ng
  BocMA concentration in urine: 95 ng/mL
[2]; rat no. 2, urine 0–72 h total, BocMA 20 mg/kg i.p.
  BocMA absolute amount in urine: 310 ng
[2]; [10]
  BocMA absolute amount in urine: 78 ng
  BocMA concentration in urine: 39 ng/mL
[2]; [11]
  BocMA absolute amount in urine: 44 ng
  BocMA concentration in urine: 2.9 ng/mL
[2]; [12]
  BocMA absolute amount in urine: 2700 ng
  BocMA concentration in urine: 5400 ng/mL
[2]; rat no. 3, urine 0–72 h total, BocMA 20 mg/kg i.p.
  BocMA absolute amount in urine: 15000 ng
[2]; [13]
  BocMA absolute amount in urine: 4400 ng
  BocMA concentration in urine: 2200 ng/mL
[2]; [14]
  BocMA absolute amount in urine: 6800 ng
  BocMA concentration in urine: 680 ng/mL
[2]; [15]
  BocMA absolute amount in urine: 660 ng
  BocMA concentration in urine: 83 ng/mL
[2]; [16]
  BocMA absolute amount in urine: 810 ng
  BocMA concentration in urine: 90 ng/mL
[2]; rat urine over 72 h, average, n = 3
  Excreted BocMA as the unchanged form, share of the administered quantity: 0.13%
[2]; urine 0–72 h, BocMA 20 mg/kg i.p., n = 3
  Detection in rat urine (LC–QToF–MS): detected in urine from all rats
[3]; RLM test
  Incubation time at which peak intensity was highest: 0 min
[3]; RLM, first 3 min
  BocMA degraded: 83%
[3]; RLM, mean ± SD, n = 3
  ER (extraction ratio): 0.92 and 0.92 ± 0.01
[3]; RLM, scaled to whole liver, mean ± SD, n = 3
  CLint (estimated intrinsic clearance): 640 ± 70 mL/min/kg body wt.
[3]; RLM, well-stirred model without protein binding, mean ± SD, n = 3
  CLH (estimated hepatic clearance): 51 ± 1 mL/min/kg body wt.
[3]; rat, microsomes, pH 7.4
  half-life at 1 μg/mL: 2 ± 0.2 min
  microsomal CLint at 1 μg/mL: 360 ± 40 µL/min/mg
[4]; HLM, first 8 min
  BocMA degraded: 80%
[4]; HLM, mean ± SD, n = 3
  ER (extraction ratio): 0.90 and 0.90 ± 0.01
[4]; HLM, scaled to whole liver, mean ± SD, n = 3
  CLint (estimated intrinsic clearance): 200 mL/min/kg body wt. and 200 ± 20 mL/min/kg body wt.
[4]; HLM, well-stirred model without protein binding, mean ± SD, n = 3
  CLH (estimated hepatic clearance): 19 ± 1 mL/min/kg body wt.
[4]; human, microsomes, pH 7.4
  half-life at 1 μg/mL: 3.2 ± 0.3 min
  microsomal CLint at 1 μg/mL: 220 ± 20 µL/min/mg
